In PubChem BioAssay (NCI):
Several values for one entry are separate records, joined by “and”; a condition that tells them apart may be missing. Identical values can stand only once.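 Exposure lasted 48 hours, with cells grown in 96-well plates and compounds tested at five concentrations. Abbreviation: GI50, concentration required for 50% inhibition of growth. Definition used: TGI = concentration required for complete inhibition of growth.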

Key:
Assay in all cases: growth of human tumour cells (NCI), 48 h
HL-60(TB) leukemia = test system: HL-60(TB) leukemia
UACC-257 melanoma = test system: UACC-257 melanoma
786-0 renal = test system: 786-0 renal
MDA-MB-231 breast = test system: MDA-MB-231 breast
LOX IMVI melanoma = test system: LOX IMVI melanoma
COLO 205 colon = test system: COLO 205 colon
A498 renal = test system: A498 renal
SK-MEL-5 melanoma = test system: SK-MEL-5 melanoma
MALME-3M melanoma = test system: MALME-3M melanoma
RPMI-8226 leukemia = test system: RPMI-8226 leukemia
U251 CNS = test system: U251 CNS
K-562 leukemia = test system: K-562 leukemia
SK-OV-3 ovarian = test system: SK-OV-3 ovarian
HS 578T breast = test system: HS 578T breast
SK-MEL-2 melanoma = test system: SK-MEL-2 melanoma
OVCAR-4 ovarian = test system: OVCAR-4 ovarian
MOLT-4 leukemia = test system: MOLT-4 leukemia
A549 NSCLC = test system: A549 NSCLC
SN12C renal = test system: SN12C renal
UO-31 renal = test system: UO-31 renal
HCC-2998 colon = test system: HCC-2998 colon
HCT-116 colon = test system: HCT-116 colon
PC-3 prostate = test system: PC-3 prostate
KM12 colon = test system: KM12 colon
HOP-92 NSCLC = test system: HOP-92 NSCLC
SK-MEL-28 melanoma = test system: SK-MEL-28 melanoma
NCI-H23 lung = test system: NCI-H23 lung
MCF7 breast = test system: MCF7 breast
DU-145 prostate = test system: DU-145 prostate
NCI-H522 lung = test system: NCI-H522 lung
HCT-15 colon = test system: HCT-15 colon
OVCAR-8 ovarian = test system: OVCAR-8 ovarian
SF-268 CNS = test system: SF-268 CNS
CAKI-1 renal = test system: CAKI-1 renal
CCRF-CEM leukemia = test system: CCRF-CEM leukemia
MDA-MB-435 = test system: MDA-MB-435
SF-295 CNS = test system: SF-295 CNS
NCI-H460 lung = test system: NCI-H460 lung
SW-620 colon = test system: SW-620 colon
M14 melanoma = test system: M14 melanoma
HT29 colon = test system: HT29 colon
NCI-H226 lung = test system: NCI-H226 lung
SF-539 CNS = test system: SF-539 CNS
ACHN renal = test system: ACHN renal
NCI/ADR-RES ovarian = test system: NCI/ADR-RES ovarian
SR leukemia = test system: SR leukemia
UACC-62 melanoma = test system: UACC-62 melanoma
SNB-19 CNS = test system: SNB-19 CNS
BT-549 breast = test system: BT-549 breast
SNB-75 CNS = test system: SNB-75 CNS
OVCAR-5 ovarian = test system: OVCAR-5 ovarian
OVCAR-3 ovarian = test system: OVCAR-3 ovarian
TK-10 renal = test system: TK-10 renal

## Fc1c[c-]c(-c2ccccn2)c(F)c1.Fc1c[c-]c(-c2ccccn2)c(F)c1.[Cl][Pt+].[Cl][Pt+].c1ccc([PH+](C[PH+](c2ccccc2)c2ccccc2)c2ccccc2)cc1
HL-60(TB) leukemia
  GI50: 271 nM
  TGI: 813 nM
UACC-257 melanoma
  GI50: 235 nM
  TGI: 815 nM
786-0 renal
  GI50: 184 nM
  TGI: 380 nM
MDA-MB-231 breast
  GI50: 139 nM
  TGI: 373 nM
LOX IMVI melanoma
  GI50: 380 nM
  TGI: 1380 nM
COLO 205 colon
  GI50: 132 nM
  TGI: 362 nM
A498 renal
  GI50: 164 nM
  TGI: 461 nM
SK-MEL-5 melanoma
  GI50: 164 nM
  TGI: 307 nM
MALME-3M melanoma
  GI50: 264 nM
  TGI: 758 nM
RPMI-8226 leukemia
  GI50: 80 nM
  TGI: 466 nM
U251 CNS
  GI50: 63 nM
  TGI: 218 nM
K-562 leukemia
  GI50: 95.5 nM
  TGI: > 100000 nM
SK-OV-3 ovarian
  GI50: 330 nM
  TGI: 910 nM
HS 578T breast
  GI50: 275 nM
  TGI: 1170 nM
SK-MEL-2 melanoma
  GI50: 193 nM
  TGI: 479 nM
OVCAR-4 ovarian
  GI50: 154 nM
  TGI: 977 nM
MOLT-4 leukemia
  GI50: 328 nM

## COC(=O)c1cc2c(cc1O)[C@@H](NC(C)=O)CCc1cc(OC)c(OC)c(OC)c1-2
A549 NSCLC
  GI50: 31.3 nM
  TGI: > 100000 nM
SN12C renal
  GI50: 40.8 nM
  TGI: > 100000 nM
UO-31 renal
  GI50: 62.6 nM
  TGI: > 100000 nM
HCC-2998 colon
  GI50: 35.5 nM
UACC-257 melanoma
  GI50: 27.4 nM
  TGI: > 100000 nM
786-0 renal
  GI50: 41.6 nM
  TGI: > 100000 nM
HCT-116 colon
  GI50: 16.4 nM
MDA-MB-231 breast
  GI50: 54.2 nM
  TGI: > 100000 nM
PC-3 prostate
  GI50: 15 nM
  TGI: > 100000 nM
KM12 colon
  GI50: < 10 nM
LOX IMVI melanoma
  TGI: > 100000 nM
HOP-92 NSCLC
  TGI: 8750 nM
SK-MEL-28 melanoma
  GI50: > 100000 nM
  TGI: > 100000 nM
COLO 205 colon
  GI50: 23.6 nM
  TGI: 1560 nM and 1180 nM
A498 renal
  GI50: 42.2 nM
NCI-H23 lung
  GI50: 21.7 nM
  TGI: 84.8 nM and 71.2 nM
MALME-3M melanoma
  GI50: 29.9 nM
MCF7 breast
  TGI: > 100000 nM
DU-145 prostate
  TGI: > 100000 nM
NCI-H522 lung
  TGI: 190 nM
RPMI-8226 leukemia
  GI50: 52.4 nM
  TGI: > 100000 nM
U251 CNS
  GI50: 40.2 nM
  TGI: 1170 nM
HCT-15 colon
  GI50: 22.6 nM
OVCAR-8 ovarian
  GI50: 40.4 nM
K-562 leukemia
  GI50: 24.6 nM
  TGI: > 100000 nM
SF-268 CNS
  GI50: 447 nM
  TGI: > 100000 nM
SK-OV-3 ovarian
  GI50: 83.1 nM
  TGI: > 100000 nM
CAKI-1 renal
  GI50: 21.4 nM
  TGI: > 100000 nM
HS 578T breast
  TGI: 48.1 nM
CCRF-CEM leukemia
  GI50: 39.8 nM
  TGI: > 100000 nM
MDA-MB-435
  GI50: < 10 nM
  TGI: 1230 nM
SF-295 CNS
  GI50: < 10 nM
  TGI: > 100000 nM
NCI-H460 lung
  GI50: 29.6 nM
  TGI: > 100000 nM
SK-MEL-2 melanoma
  GI50: < 10 nM
  TGI: 37.1 nM
OVCAR-4 ovarian
  GI50: 1060 nM
  TGI: > 100000 nM
SW-620 colon
  GI50: 23.5 nM
  TGI: > 100000 nM
M14 melanoma
  GI50: 29.3 nM
  TGI: > 100000 nM
HT29 colon
  GI50: 20.6 nM
  TGI: 201 nM and 55.4 nM
NCI-H226 lung
  GI50: 30.9 nM
SF-539 CNS
  TGI: 76600 nM
ACHN renal
  GI50: 45.9 nM
  TGI: > 100000 nM
NCI/ADR-RES ovarian
  GI50: 59.6 nM
MOLT-4 leukemia
  GI50: 47.2 nM
  TGI: 81800 nM
SR leukemia
  GI50: < 10 nM
  TGI: > 100000 nM
UACC-62 melanoma
  GI50: 15.9 nM
  TGI: > 100000 nM
SNB-19 CNS
  GI50: 35.5 nM
  TGI: > 100000 nM

## Clc1ccc2c(NCCCNc3nccc(Nc4ccc(Br)cc4)n3)ccnc2c1
HL-60(TB) leukemia
  GI50: 2130 nM
  TGI: 4940 nM
BT-549 breast
  GI50: 1680 nM
  TGI: 3400 nM
A549 NSCLC
  GI50: 1780 nM
  TGI: 3520 nM
SN12C renal
  GI50: 1690 nM
  TGI: 3370 nM
UO-31 renal
  GI50: 1520 nM
  TGI: 3010 nM
HCC-2998 colon
  GI50: 1500 nM
  TGI: 2930 nM
SNB-75 CNS
  GI50: 1300 nM
  TGI: 2570 nM
UACC-257 melanoma
  GI50: 1870 nM
  TGI: 3400 nM
786-0 renal
  GI50: 1750 nM
  TGI: 3450 nM
HCT-116 colon
  GI50: 1360 nM
  TGI: 3080 nM
MDA-MB-231 breast
  GI50: 1790 nM
  TGI: 3470 nM
PC-3 prostate
  GI50: 1740 nM
  TGI: 3560 nM
KM12 colon
  GI50: 1820 nM
  TGI: 3360 nM
HOP-92 NSCLC
  GI50: 1320 nM
  TGI: 3230 nM
SK-MEL-28 melanoma
  GI50: 1650 nM
  TGI: 3150 nM
COLO 205 colon
  GI50: 1640 nM
  TGI: 3220 nM
A498 renal
  GI50: 1220 nM
  TGI: 2480 nM
NCI-H23 lung
  GI50: 1740 nM
  TGI: 3270 nM
SK-MEL-5 melanoma
  GI50: 1480 nM
  TGI: 2840 nM
MCF7 breast
  GI50: 1390 nM
  TGI: 2940 nM
DU-145 prostate
  GI50: 1860 nM
  TGI: 3310 nM
NCI-H522 lung
  GI50: 1930 nM
  TGI: 3520 nM
RPMI-8226 leukemia
  GI50: 1970 nM
  TGI: 4450 nM
U251 CNS
  GI50: 1520 nM
  TGI: 2940 nM
HCT-15 colon
  GI50: 1280 nM
  TGI: 2700 nM
SF-268 CNS
  GI50: 1730 nM
  TGI: 3320 nM
SK-OV-3 ovarian
  GI50: 1550 nM
  TGI: 2910 nM
CAKI-1 renal
  GI50: 1530 nM
  TGI: 3000 nM
MDA-MB-435
  GI50: 1550 nM
  TGI: 2920 nM
SF-295 CNS
  GI50: 1560 nM
  TGI: 2970 nM
NCI-H460 lung
  GI50: 1760 nM
  TGI: 3440 nM
OVCAR-5 ovarian
  GI50: 1630 nM
  TGI: 3180 nM
SK-MEL-2 melanoma
  GI50: 2100 nM
  TGI: 3670 nM
OVCAR-4 ovarian
  GI50: 1390 nM
  TGI: 2750 nM
SW-620 colon
  GI50: 1580 nM
  TGI: 3300 nM
M14 melanoma
  GI50: 1710 nM
  TGI: 3500 nM
OVCAR-3 ovarian
  GI50: 1750 nM
  TGI: 3230 nM
HT29 colon
  GI50: 1260 nM
  TGI: 2670 nM
TK-10 renal
  GI50: 1830 nM
  TGI: 3260 nM
NCI-H226 lung
  GI50: 2740 nM
  TGI: 7370 nM
SF-539 CNS
  GI50: 1810 nM
  TGI: 3370 nM
ACHN renal
  GI50: 1660 nM
  TGI: 3200 nM
NCI/ADR-RES ovarian
  GI50: 1790 nM
  TGI: 3420 nM
UACC-62 melanoma
  GI50: 1880 nM
  TGI: 3560 nM
SNB-19 CNS
  GI50: 1750 nM
  TGI: 3320 nM
